For data set [1], the system named is SARS-CoV-2. The data set can be described thus: SARS-CoV-2 infection assay, viral RNA in culture supernatant by real-time RT-PCR. In kind it is cell-based, SARS-CoV-2 Wk-521 strain. The conditions noted are these: viral RNA in culture supernatant, 24 h post-inoculation, VeroE6/TMPRSS2 cells. A general note: In qPCR the cycle at which signal appears reflects the starting amount.

Data set [2] in a line: Cell viability by MTT assay. The conditions noted are these: African green monkey, VeroE6 cells stably overexpressing TMPRSS2. (In general: Formazan colour is commonly taken as a measure of viable cells.)
The subject of data set [3] is SARS-CoV-2. Put plainly: Time of addition assay (whole life cycle, entry, post-entry). The conditions noted are these: 15 μM RDV, 10 μM Oxy210, 10 μM Oxy133; added 2 h post-inoculation for 21 h. In kind it is cell-based, SARS-CoV-2 Wk-521 strain.
In data set [4] the test system is SARS-CoV-2. The data set can be described thus: Viral N protein by indirect immunofluorescence. In kind it is cell-based, SARS-CoV-2 Wk-521 strain. The conditions noted are these: 10 μM RDV, 30 μM cholesterol, 30 μM 7-KC, 10 μM Oxy133, 10 μM Oxy210.
The subject of data set [5] is SARS-CoV-2. Put plainly: Virus-induced cytopathic effect (CPE) viewed under a microscope. Type of data set: cell-based, SARS-CoV-2 Wk-521 strain. The conditions noted are these: 48 h post-inoculation; 10 μM RDV, 30 μM cholesterol, 30 μM 7-KC, 10 μM Oxy133, 10 μM Oxy210.

For `CCC(CC)COC(=O)[C@H](C)N[P@](=O)(OC[C@H]1O[C@@](C#N)(c2ccc3c(N)ncnn23)[C@H](O)[C@@H]1O)Oc1ccccc1` [RDV, remdesivir, reference compound], the IC90 in the data set with SARS-CoV-2 [1] (Severe acute respiratory syndrome coronavirus 2, read-out: IC90 (90% maximal inhibitory concentration)) was 2500 nM. Moreover, the IC50 in the data set on SARS-CoV-2 [1] (Severe acute respiratory syndrome coronavirus 2, read-out: IC50 (50% maximal inhibitory concentration)) is 1500 nM. The CC50 at 24 h in data set [2] is above 10 µM. In the data set with SARS-CoV-2 [3], the “viral RNA, compound present post-entry (in words)” value was “remarkable inhibition”. Besides, the “effect on virus propagation / spread of infection, N protein (in words)” value in the data set on SARS-CoV-2 [4] is “blocked”. For the same compound, the “effect on SARS-CoV-2-induced CPE (in words)” value in the data set on SARS-CoV-2 [5] is given as “blocked the virus-induced CPE”.

What is called CC50 is the concentration that lowers cell viability or growth by half. High values mean better tolerance by the cells, low ones harm at low concentration.
